The source of these data is US20240174680A1, “CDK2 INHIBITORS AND METHODS OF USING THE SAME” (Cedilla Therapeutics, Inc., priority 2021, published 2024).

The target of this experiment is CDK2/Cyclin E1 (Homo sapiens, UniProt P24941). As to the kind of experiment: CDK2/Cyclin E1 Caliper LabChip EZ Reader mobility shift assay. The experiment is classed as biochemical. The arrangement: purchased Eurofins 14-475. As to conditions: read-out: Caliper Assay (CDK2/CCNE1): IC50. In a few lines: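 Mobility-shift kinase assay: compound titrations preincubated 30 min with enzyme and ATP, reaction started with 5-FAM-QSPKKG-CONH2 peptide. Final 2.5 nM CDK2/Cyclin E1, 100 μM ATP, 1.5 μM peptide, HEPES pH 7.5; stopped with EDTA after 100 min. IC50 from four-parameter fit of normalized conversion ratio.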

As for `C[C@@H](OCc1ccc(Cl)cc1)[C@@H](CO)NC(=O)[C@@H]1CN(C(=O)c2cncs2)CC12CN(C(=O)[C@H]1CC1(C)C)C2` [I-404], the IC50 was in the range of 10 to 100 nM. For `Cc1ccc(CNC(=O)[C@@H]2CN(C(=O)c3cnc(Cc4ccccc4)s3)CC23CN(C(=O)[C@H]2CC2(C)C)C3)nn1` [I-405] the value was more than 10000 nM; for `C[C@@H](OCC1CCCCC1)[C@H](NC(=O)[C@@H]1CN(C(=O)c2cncs2)CC12CN(C(=O)[C@H]1CC1(C)C)C2)C(=O)N1CCC(c2cnc[nH]2)CC1` [I-406], not above 10 nM. For `COC[C@H]1CCCN(C(=O)[C@@H](NC(=O)[C@@H]2CN(C(=O)c3cncs3)CC23CN(C(=O)[C@H]2CC2(C)C)C3)[C@@H](C)OC[C@H]2CC[C@@H](OC)CC2)C1` [I-408] the value was 10 to 100 nM. Regarding `C[C@@H](OCc1ccccc1)[C@H](NC(=O)[C@@H]1CN(C(=O)c2cnn(Cc3ccccc3)c2)CC12CN(C(=O)[C@H]1CC1(C)C)C2)C(=O)N(C)C` [I-409], the IC50 is not above 10 nM. The result for `CNC(=O)C(NC(=O)[C@@H]1CN(C(=O)c2cncs2)CC12CN(C(=O)C(C)(C)C1CC1)C2)c1cccc(C2CCCCC2)n1` (stereo partly drawn) [I-410, (8S)—N-(1-(6-cyclohexylpyridin-2-yl)-2-(methylamino)-2-oxoethyl)-2-(2-cyclopropyl-2-methylpropanoyl)-6-(thiazole-5-carbonyl)-2,6-diazaspiro[3.4]octane-8-carboxamide] reads 10 to 100 nM; that for `CNC(=O)C(NC(=O)[C@@H]1CN(C(=O)c2cncs2)CC12CN(C(=O)[C@H]1CC1(C)C)C2)c1cccc(C2CCC(F)(F)CC2)n1` (stereo partly drawn) [I-411], 10 to 100 nM; that for `C[C@@H](OCC1CC(F)(F)C1)[C@@H](CO)NC(=O)[C@@H]1CN(C(=O)c2cncs2)CC12CN(C(=O)[C@H]1CC1(C)C)C2` [I-412], 10 to 100 nM.

Take `CNC(=O)[C@@H](NC(=O)[C@@H]1CN(C(=O)c2cnn(Cc3ccccc3)c2)CC12CN(C(=O)[C@H]1CC1(C)C)C2)[C@@H](C)OC[C@H]1CC[C@H](O)CC1` [I-413]: the IC50 lay within 100 to 1000 nM. The result for `CC1(C)C[C@@H]1C(=O)N1CC2(CN(C(=O)c3cncs3)C[C@H]2C(=O)NCc2cccc(C3CCCCC3)n2)C1` [I-414] reads 10 to 100 nM; that for `C[C@@H](OCc1ccccc1)[C@H](NC(=O)[C@@H]1CN(C(=O)c2cncs2)CC12CN(C(=O)[C@H]1CC1(C)C)C2)C(=O)N(C)C` [I-416], 10 to 100 nM. For `Cc1ccc(CNC(=O)[C@@H]2CN(C(=O)c3cnn(Cc4ccccn4)c3)CC23CN(C(=O)[C@H]2CC2(C)C)C3)nn1` [I-417] the value was more than 10000 nM; for `Cc1ccc(CNC(=O)[C@@H]2CN(C(=O)c3cnn(Cc4ccncc4)c3)CC23CN(C(=O)[C@H]2CC2(C)C)C3)nn1` [I-418], more than 10000 nM; for `CC1(C)C[C@@H]1C(=O)N1CC2(CN(C(=O)c3cncs3)C[C@H]2C(=O)NC(CO)c2cccc(C3CCC(F)(F)CC3)n2)C1` (stereo partly drawn) [I-419], 100 to 1000 nM. The result for `CNC(=O)C(NC(=O)[C@@H]1CN(C(=O)c2cncs2)CC12CN(C(=O)[C@H]1CC1(C)C)C2)c1ccc(C)nn1` (stereo partly drawn) [I-420] reads more than 10000 nM; that for `CNC(=O)C(NC(=O)[C@@H]1CN(C(=O)c2cnn(Cc3ccccc3)c2)CC12CN(C(=O)[C@H]1CC1(C)C)C2)c1ccc(C)nn1` (stereo partly drawn) [I-421], 1000 to 10000 nM; that for `CNC(=O)C(NC(=O)[C@@H]1CN(C(=O)c2cncs2)CC12CN(C(=O)[C@H]1CC1(C)C)C2)c1cccc(N2CCOCC2)n1` (stereo partly drawn) [I-422], 1000 to 10000 nM. For `CC(C)(O)C(NC(=O)[C@@H]1CN(C(=O)c2cncs2)CC12CN(C(=O)[C@H]1CC1(C)C)C2)c1cccc(C2CCOCC2)n1` (stereo partly drawn) [I-423], the IC50 lay within 1000 to 10000 nM. The result for `CNC(=O)[C@@H](NC(=O)[C@@H]1CN(C(=O)c2cnn(Cc3ccccc3)c2)CC12CN(C(=O)[C@H]1CC1(C)C)C2)[C@@H](C)OC[C@H]1CC[C@@H](O)CC1` [I-424] reads 10 to 100 nM; that for `CNC(=O)C(NC(=O)[C@@H]1CN(C(=O)c2cncs2)CC12CN(C(=O)[C@H]1CC1(C)C)C2)c1nc(C2CCCCC2)co1` (stereo partly drawn) [I-425], 100 to 1000 nM.

`CNC(=O)C(NC(=O)[C@@H]1CN(C(=O)c2cncs2)CC12CN(C(=O)[C@H]1CC1(C)C)C2)c1ncc(C2CCCCC2)o1` (stereo partly drawn) [I-426]: the IC50 lay within 100 to 1000 nM.

Turning to `CNC(=O)C(NC(=O)[C@@H]1CN(C(=O)c2cncs2)CC12CN(C(=O)[C@H]1CC1(C)C)C2)c1cccc(N2CC3(COC3)C2)n1` (stereo partly drawn) [I-427], the IC50 was in the range of 1000 to 10000 nM. The result for `C[C@@H](OCC1CCOCC1)[C@@H](COC(F)(F)F)NC(=O)[C@@H]1CN(C(=O)c2cncs2)CC12CN(C(=O)[C@H]1CC1(C)C)C2` [I-428] reads 100 to 1000 nM; that for `CNC(=O)C(NC(=O)[C@@H]1CN(C(=O)c2cncs2)CC12CN(C(=O)[C@H]1CC1(C)C)C2)c1cccc(N2CC3(CC(C(F)(F)F)C3)C2)n1` (stereo partly drawn) [I-430], 100 to 1000 nM. Consider `COC[C@H]1CCCN(C(=O)[C@@H](NC(=O)[C@@H]2CN(C(=O)c3cncs3)CC23CN(C(=O)C(C)(C)C2CC2)C3)[C@@H](C)OC[C@H]2CC[C@H](O)CC2)C1` [I-431], for which the IC50 is 100 to 1000 nM.

With `CNC(=O)C(NC(=O)[C@@H]1CN(C(=O)c2cncs2)CC12CN(C(=O)[C@H]1CC1(C)C)C2)c1cccc(N2CCCCC2)n1` (stereo partly drawn) [I-432], the IC50 lay in the range of 100 to 1000 nM. With `COC[C@H]1CCCN(C(=O)[C@@H](NC(=O)[C@@H]2CN(C(=O)c3cncs3)CC23CN(C(=O)[C@H]2CC2(C)C)C3)[C@@H](C)OC[C@H]2CC[C@H](N)CC2)C1` [I-433], the IC50 lay in the range of 1000 to 10000 nM. For `COC[C@H]1CCCN(C(=O)[C@@H](NC(=O)[C@@H]2CN(C(=O)c3cncs3)CC23CN(C(=O)[C@H]2CC2(C)C)C3)[C@@H](C)OC[C@H]2CC[C@H](NC(C)=O)CC2)C1` [I-434] the value was 100 to 1000 nM; for `COC[C@H]1CCCN(C(=O)[C@@H](NC(=O)[C@@H]2CN(C(=O)c3cncs3)CC23CN(C(=O)[C@H]2CC2(C)C)C3)[C@@H](C)OC[C@H]2CC[C@H](OC(F)(F)F)CC2)C1` [I-435], not above 10 nM; for `CC(C)(O)C(NC(=O)[C@@H]1CN(C(=O)c2cnco2)CC12CN(C(=O)[C@H]1CC1(C)C)C2)c1cccc(C2CCOCC2)n1` (stereo partly drawn) [I-436], more than 10000 nM. For `Cc1nc(C)c(C(=O)N2C[C@@H](C(=O)NC(c3cccc(C4CCOCC4)n3)C(C)(C)O)C3(C2)CN(C(=O)[C@H]2CC2(C)C)C3)s1` (stereo partly drawn) [I-437] the value was more than 10000 nM. For `C[C@@H](OCC1CCCCC1)[C@H](NC(=O)[C@@H]1CN(C(=O)c2cnn(Cc3ccccc3)c2)CC12CN(C(=O)[C@H]1CC1(C)C)C2)C(=O)N1CCC(c2cnc[nH]2)CC1` [I-438] the value was not above 10 nM. `C[C@@H](OCC1CCCCC1)[C@H](NC(=O)[C@@H]1CN(C(=O)c2cnn(Cc3ccccc3)c2)CC12CN(C(=O)[C@H]1CC1(C)C)C2)C(=O)N1CCC(n2cccn2)CC1` [I-439]: the IC50 was not above 10 nM. As to `C[C@@H](OCC1CCOCC1)[C@H](NC(=O)[C@@H]1CN(C(=O)c2cncs2)CC12CN(C(=O)[C@H]1CC1(C)C)C2)C(=O)N1CCC(n2ccnc2)CC1` [I-440], the IC50 was 10 to 100 nM. As to `C[C@@H](OCC1CCCCC1)[C@H](NC(=O)[C@@H]1CN(C(=O)c2cnn(Cc3ccccc3)c2)CC12CN(C(=O)[C@H]1CC1(C)C)C2)C(=O)N1CCC(c2cc[nH]n2)CC1` [I-443], the IC50 was not above 10 nM. For `C[C@@H](OCC1CCC2(CCC2)CC1)[C@H](NC(=O)[C@@H]1CN(C(=O)c2cnn(Cc3ccccc3)c2)CC12CN(C(=O)[C@H]1CC1(C)C)C2)C(=O)N1CCC(c2cnc[nH]2)CC1` [I-444] the value was not above 10 nM.
